These results are taken from US8709420B2 (GlaxoSmithKline Intellectual Property Limited, priority 2010, dated 2014).

One data set has as its system HIF-1 alpha. Kind of data set: Immunohistochemistry of xenograft tumors, HIF-1 alpha. In kind it is in vivo, NOD/SCID mice. The conditions noted are these: NB12 xenograft model. The method, then:
Formalin fixed tissues were paraffin embedded and sections cut at 7 um. […] The primary antibodies were anti-HIF-1 alpha (#NB100-131, Novus Biologicals, dilution 1:3000), HIF-2 alpha (#NB100-122, Novus Biologicals, dilution 1:100), Oct-4 (#2890S, Cell Signalling, dilution 1:100), von Willebrand factor (#A0082; DakoCytomation, Glostrup, Denmark). After the primary antibody treatment, all the slides were washed three times with PBS and incubated with broad spectrum poly-horse radish peroxidase (HRP) conjugate […] secondary antibody (87-9663, Invitrogen) for 1 h at room temperature. After washing three times with PBS, slides were stained with diaminobenzidine (DAB) and counterstained with hematoxylin. Microscopic images of six fields of high vascular density were digitally captured for vWF-stained slides, while for HIF-1 alpha, HIF-2 alpha and Oct-4 stained slides, the images of six randomly selected areas were captured. The pixel values for stained areas were quantified using ImageJ software. Tumor angiogenesis was quantified as the number of pixels of regions positive for vWF.

Data set [1] has as its system Rh4 rhabdomyosarcoma cell line. In kind it is cell-based. The method, then:
Materials: The cells were cultured at 37° C. in 5% CO2 in a-MEM (Multicell; Wisent, Inc., St. Bruno, Quebec, Canada) with 10% fetal bovine serum (FBS; Life Technologies, Grand Island, N.Y.) and 1% antibiotic mixture, containing 10000 IU penicillin and 10000 μg/ml streptomycin (Multicell; Wisent, Inc., St. Bruno, Quebec, Canada). Trypsin-EDTA, containing 0.05% trypsin and 0.53 mM EDTA was also purchased from Multicell; Wisent, Inc., St. Bruno, Quebec, Canada.
Procedure: A total of 20,000 cells were plated in each well of 48 well-plates and incubated at 37° C. in 5% CO2. After 48 h, the cells were treated with various concentrations of drugs. After 72 h of treatment, the cell viability was determined by alamar blue assay.

The conditions of data set [2]: previously reported; cited from earlier work.
The subject of data set [3] is circulating endothelial progenitor cells (CEPs). The data set can be described thus: CEP/CEC flow cytometry in SK-N-BE(2) xenograft model. In kind it is in vivo, mouse. The conditions noted are these: after one week treatment. The method, then:
Approximately 160 μl of mouse blood was collected in K2-EDTA tubes by saphenous vein puncture from animals of the SK-N-BE(2) xenograft model (after one week treatment) and BE(2)-c metastatic model (after one week and four weeks treatment). Blood was immediately stored at 4° C. until analysis. The CEP/CECs were measured by flow cytometry within 48 hrs of blood collection as previously described. CEPs were defined as CD45−, VEGFR-2+, CD117+, and CD13+, while CECs were defined as CD45−, VEGFR-2+, CD117−, and CD13+. The absolute number of CEPs was calculated as the percentage of events collected in CEP enumeration gates multiplied by the total white blood cell (WBC) count.

For a further data set, the system named is HUVEC. Kind of data set: In-vitro cytotoxicity, Alamar Blue cell viability. In kind it is cell-based. To be noted: Homo sapiens, 72 h treatment, read-out: IC50, reduction in viability of HUVEC cells.
The test system of data set [4] is BE(2)-c experimental metastases. The data set can be described thus: BE(2)-c metastatic tumor model. In kind it is in vivo, NOD/SCID mice.
Procedure: 1×10^6 BE(2)-c cells were injected into lateral tail veins of NOD/SCID mice to generate ‘experimental’ metastases. […] The treatment was continued until death or end point.
In the metastatic model, the animals' organs (liver, kidney, adrenal, and femur) were removed after the death/sacrifice of animals, and were fixed in 10% formalin and paraffin-embedded. These paraffin-embedded sections were then stained with hematoxylin and eosin and microscopically examined.
A further data set relates to KHOS xenograft. Kind of data set: KHOS osteosarcoma mouse xenograft model. In kind it is in vivo, NOD/SCID mice.
The subject of data set [5] is NB12 tumor initiating cell line. The data set can be described thus: In-vitro cytotoxicity, Alamar Blue cell viability. The conditions noted are these: topotecan alone, 72 h. In kind it is cell-based. The source says: (§1) SK-N-BE(2) (MYCN amplified) and SH-SY5Y (non-MYCN amplified neuroblastoma cell lines) were obtained from American Type Culture Collection (ATCC) (Manassas, Va.); BE(2)-c sub-clone of SK-N-BE(2) was obtained from Dr. Michelle Haber (Children's Cancer Institute for Medical Research, Lowry Cancer Research Centre, Randwick, Australia); Human Umbilical Vein Endothelial Cells (HUVECs) were obtained from Dr. Herman Yeger (The Hospital for Sick Children, Toronto, Ontario, Canada) and Tumor Initiating (TIC) cell lines NB12 and NB88, were obtained from Dr. David Kaplan (The Hospital for Sick Children, Toronto, Ontario, Canada). TICs NB12 and NB88 were isolated from the bone marrow metastases of relapsed high-risk neuroblastoma patients. Neuroblastoma cell lines SK-N-BE(2) and SH-SY5Y were grown in alpha-MEM containing 10% fetal bovine serum and 1% antibiotic mixture in humidified atmosphere at 37° C. with 5% CO2. NB12 and NB 88 were cultured as described previously.
(§2) Cell viability was determined by Alamar Blue assay. Alamar blue (10% of total volume was added to each well three hours prior to fluorometric detection). Fluorometric detection was performed using the SPECTRAmax gemini Spectrophotometer at excitation wavelength of 540 nm and emission wavelength of 590 nm.

Data set [6] deals with BE(2)-c neuroblastoma cell line. The data set can be described thus: In-vitro cytotoxicity, Alamar Blue cell viability. In kind it is cell-based. The conditions noted are these: Homo sapiens, topotecan alone, 72 h.
Text: as §1, §2

The test system of data set [7] is NB88 tumor initiating cell line. The data set can be described thus: In-vitro cytotoxicity, Alamar Blue cell viability. In kind it is cell-based. To be noted: topotecan alone, 72 h.
Text: as §1, §2

Data set [8] deals with KHOS xenograft tumor microvasculature. Kind of data set: Microvessel density by von Willebrand factor staining of KHOS xenografts. In kind it is in vivo, NOD/SCID mice. To be noted: after 28 days treatment. The method, then:
Procedure: Formalin fixed tissues were paraffin embedded and sections cut at 7 um. […] The primary antibody was von Willebrand factor (#A0082; DakoCytomation, Glostrup, Denmark). After the primary antibody treatment, the slides were washed three times with PBS and incubated with broad spectrum poly-horse radish peroxidase (HRP) conjugate secondary antibody (87-9663, Invitrogen) for 1 h at room temperature. After washing three times with PBS, slides were stained with diaminobenzidine (DAB) and counterstained with hematoxylin. Microscopic images of six fields of high vascular density were digitally captured. The pixel values for stained areas were quantified using ImageJ software. Tumor angiogenesis was quantified as the number of pixels of regions positive for von Willebrand Factor.

SMILES strings stand for the structures. ≈ marks a conversion by molar mass, not a printed value. Where “and” joins values, the source holds several entries; their conditions need not be identical. Equal values may be shown once.

As for `Cc1ccc(Nc2nccc(N(C)c3ccc4c(C)n(C)nc4c3)n2)cc1S(N)(=O)=O` [pazopanib, 5-[[4-[(2,3-dimethyl-2H-indazol-6-yl)methylamino]-2-pyrimidinyl]amino]-2-methylbenzenesulfonamide], the HIF-1 alpha expression entry in the data set on HIF-1 alpha is given as “increase”. In data set [1], the “cell viability / cytotoxicity” value is listed as “did not show cytotoxicity”. In addition, the “optimal plasma concentration of pazopanib effectiveness” value in [2] was “≈ 18 μg/ml and 40 μM”. The “mean values of CEPs compared to control” value in [3] is “statistically significant difference”.

Regarding `CC[C@@]1(O)C(=O)OCc2c1cc1n(c2=O)Cc2cc3c(CN(C)C)c(O)ccc3nc2-1` [topotecan], the IC50 with HUVEC stood at 0.00487 µg/mL (≈ 0.0116 µM); in data set [5], 0.0631 µg/mL (≈ 0.15 µM); in data set [6] it was 0.0456 µg/mL (≈ 0.108 µM); in data set [7], 0.0039 µg/mL (≈ 0.00925 µM). Moreover, the “survival span, TP versus PZ treated group” value in [4] (P<0.05) is listed as “higher”. Besides, the “histology of organs: tumors in liver and kidney” value in [4] (at time of death or end point) was “macroscopically detectable tumors in liver and kidney”. For the same compound, the mean survival span in data set [4] (daily oral gavage from 14 days after i.v. cell injection, TP 1.0 mg/Kg, TP+PZ plus 150 mg/Kg pazopanib) was determined as 52.4 days. Further, the tumor growth rate result with KHOS xenograft (27 days daily oral, LDM topotecan 1.0 mg/kg, combination 1.0 mg/Kg topotecan and 150 mg/Kg pazopanib) is recorded as “delayed the tumor growth rate”; with KHOS xenograft (Pulse topotecan 15 mg/Kg, 27 days) it was “delayed the tumor growth rate”. Moreover, the “tumor weights, Pulse versus LDM topotecan” value in the data set with KHOS xenograft (after 27 days treatment) is reported as “No significant differences”. Also, the “microvessel densities versus control” value in data set [8] (LDM TP, TP+PZ) is “significantly lower”; in [8] (Pulse TP), “significantly lower”.
